Structures can show the parent of a compound that is named as a salt.
Target: "atypical" β-adrenoceptors (Cavia porcellus, UniProt Q3HNP5)
Test: Relaxation of histamine-contracted guinea-pig ileum
Conditions: histamine 0.5 μM contraction, propranolol 5 μM, atropine 1 μM, phentolamine 3 μM present, read-out: EC30 (concentration of agonist producing a relaxation equivalent to 30% histamine inhibition)

Chain of "atypical" β-adrenoceptors (Q3HNP5 1-379): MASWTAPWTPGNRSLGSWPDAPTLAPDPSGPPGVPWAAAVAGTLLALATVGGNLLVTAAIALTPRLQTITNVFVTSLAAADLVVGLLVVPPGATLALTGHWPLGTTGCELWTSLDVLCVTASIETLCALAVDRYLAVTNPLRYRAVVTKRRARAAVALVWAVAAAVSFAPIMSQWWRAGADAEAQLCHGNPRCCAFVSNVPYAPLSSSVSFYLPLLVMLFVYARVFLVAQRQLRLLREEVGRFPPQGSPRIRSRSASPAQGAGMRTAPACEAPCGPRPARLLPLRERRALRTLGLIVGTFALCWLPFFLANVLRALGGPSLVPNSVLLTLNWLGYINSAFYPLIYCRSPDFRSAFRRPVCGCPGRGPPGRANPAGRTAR

COCCNC(=O)COc1ccc(OCCNC[C@H](O)COc2ccccc2)cc1 [(S)-4-[2-(2-hydroxy-3-phenoxypropylamino)ethoxy]-N-(2-methoxyethyl)phenoxyacetamide hydrochloride]
EC30: 940 ± 260 nM

From patent US5244923A, “Use of 2-(phenoxypropanolamino) ethoxphenoxy-acetic acid and its derivatives to inhibit gastrointestinal motility” (Imperial Chemical Industries PLC, priority 1990, dated 1993)
